In general, IC50 refers to the concentration needed to halve the response being measured. Broadly, the Kd is the concentration at which binding is half-saturated.

For one series, the system named is 5-HT1A receptors. The settings on record: background statement; cited from earlier work.
For another series, the target named is T1, 5-HT1A (Rattus norvegicus, UniProt P19327).
T1 construct: rat brain were purchased from Pel-Freez; tissue Pel-Freez (Roger, AR); host or cells: rat brain (cortex) membranes
T1 sequence (P19327 1-422): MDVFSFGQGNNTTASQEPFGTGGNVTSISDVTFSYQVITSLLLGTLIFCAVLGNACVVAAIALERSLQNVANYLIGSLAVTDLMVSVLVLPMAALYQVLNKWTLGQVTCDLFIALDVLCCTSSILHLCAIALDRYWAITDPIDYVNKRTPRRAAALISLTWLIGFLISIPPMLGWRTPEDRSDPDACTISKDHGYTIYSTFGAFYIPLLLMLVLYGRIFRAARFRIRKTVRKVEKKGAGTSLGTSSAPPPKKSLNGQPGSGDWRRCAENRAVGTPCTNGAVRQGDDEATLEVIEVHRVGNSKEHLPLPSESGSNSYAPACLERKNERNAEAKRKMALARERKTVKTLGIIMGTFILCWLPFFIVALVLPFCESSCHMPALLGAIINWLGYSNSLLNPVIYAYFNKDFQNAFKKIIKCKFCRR
Kind of series: Radioligand binding, 5-HT1A sites labeled by ^3 H-8-OH-DPAT, rat cortex. The following applies: for IC50: mean ± standard error of 3-4 experiments. The method, then: (§1) Radioligand binding studies were performed described in Peroutka et al., Molecular Pharmacology (1979) 16:687-699. Briefly, rat brain were purchased from Pel-Freez (Roger, AR). On the day of study, the samples were thawed in Tris-HCl buffer. Tissues were homogenized in 20 volumes Tris-HCl buffer (pH 7.7 at 25° C.) using a Brinkmann Polytron and then centrifuged in an IEC B20A centrifuge at 49,000×g for 10 min. The supernatant was discarded, and the pellet was resuspended in the same volume of Tris-HCl buffer and incubated at 37° C. for 10 min prior to a second centrifugation at 49,000×g for 10 min. The final pellet was resuspended in 80 volumes of Tris-HCl buffer containing 10 μM pargyline, 4 mM calcium chloride and 0.1% ascorbic acid. The suspensions were immediately used in the binding assay. […] Following incubation at 25° C. for 30 minutes, the assays were rapidly filtered under vacuum through #32 glass filters (Schleicher and Scheull: Keene, NH) with two 5 ml washes using 50 mM Tris-HCl buffer. Radioactivity was measured by liquid scintillation spectroscopy in ml of 3a70 Counting Cocktail (Research Products International: Mt. Prospect, IL) at 54% efficiency. […] All drugs were diluted and dissolved in assay buffer.
(§2) Each experiment was performed in triplicate and repeated 3 to 6 times.

In the next series the test system is non-5-HT1A. Kind of series: Radioligand binding, non-5-HT1A sites labeled by ^3 H-5-HT + 100 nM 8-OH-DPAT, rat cortex. The following applies: for potency at non-5-HT1A binding sites (in words) / IC50: rat cortex; for IC50: read-out: Drug Potency (IC50) non-5-HT1A (^3 H-5-HT + 100 nM 8-OH-DPAT), mean ± standard error of 3-4 experiments. The method, then: as §1, with “Briefly,” for “Radioligand binding studies were performed described in Peroutka et al., Molecular Pharmacology (1979) 16:687-699. Briefly,”, “buffer.” for “buffer. Radioactivity was measured by liquid scintillation spectroscopy in ml of 3a70 Counting Cocktail (Research Products International: Mt. Prospect, IL) at 54% efficiency.”
as §2

In a further series the target is T2, 5-HT2 (Rattus norvegicus, UniProt P14842).
T2 construct: rat brain were purchased from Pel-Freez; tissue Pel-Freez (Roger, AR); host or cells: rat brain (cortex) membranes
T2 sequence (P14842 whole entry): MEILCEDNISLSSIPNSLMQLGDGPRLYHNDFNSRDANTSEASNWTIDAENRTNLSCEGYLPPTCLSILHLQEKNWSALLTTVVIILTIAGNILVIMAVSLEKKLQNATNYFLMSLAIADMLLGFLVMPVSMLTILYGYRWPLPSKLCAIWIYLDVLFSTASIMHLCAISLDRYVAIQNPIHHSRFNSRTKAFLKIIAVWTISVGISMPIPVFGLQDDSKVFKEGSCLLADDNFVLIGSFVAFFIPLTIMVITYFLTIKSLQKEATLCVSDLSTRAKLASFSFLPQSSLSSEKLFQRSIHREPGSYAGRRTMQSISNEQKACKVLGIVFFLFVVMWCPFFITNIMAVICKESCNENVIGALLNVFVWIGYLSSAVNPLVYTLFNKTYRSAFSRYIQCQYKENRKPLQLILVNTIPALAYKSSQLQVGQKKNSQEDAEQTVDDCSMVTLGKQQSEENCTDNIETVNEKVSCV
Kind of series: Radioligand binding, 5-HT2 sites labeled by ^3 H-spiperone, rat cortex. The following applies: for IC50: mean ± standard error of 3-4 experiments. The method, then: as §1, §2

Series [1] is described as follows: Stability of Compounds 8-11 on storage. In kind it is physicochemical. The settings on record: methanol; 10 mg/ml, 20° C., 'too months'; read-out: decomposition in methanolic solution. The method, then:
Methanolic solutions (10 mg/ml) are suitable storage forms.

A further series deals with β-adrenergic receptors. As to the kind of experiment: Radioligand binding, β-adrenergic receptors labeled by ^3 H-dihydroalprenolol (^3 H-DHA), rat cortex. The following applies: for IC50: mean ± standard error of 3-4 experiments, read-out: Drug Potency (IC50) β-adrenergic (^3 H-DHA); for potency at β-adrenergic receptors relative to 5-HT1A (in words): labeled by ^3 H-DHA. The method, then: as §1, §2

A value given as a limit tells only on which side of the number the result lay.

On to `CC(C)NC[C@H](O)COc1cccc2ccccc12` [(-)-propranolol], for which, in the series on 5-HT1A receptors, the “inhibition of [^3 H]-8-OH-DPAT binding to 5-HT1A receptors (in words)” value (“inhibition of [^3 H]-8-OH-DPAT binding” for short) is recorded as “potent inhibitors”.
As for `O=C1CC2(CCCC2)CC(=O)N1CCCCN1CCN(c2ncccn2)CC1` [Buspirone], the “inhibition of [^3 H]-8-OH-DPAT binding” value with 5-HT1A receptors is recorded as “potent inhibitors”.
In the case of `CC(C)(NC(=O)CBr)[C@H]1CC[C@@](C)(NCC(O)COc2cccc3[nH]ccc23)CC1` (some centres unmarked) [Compound 8, N^8-(Bromoacetyl)-N^1-[3-(4-indolyloxy)-2-hydroxypropyl]-(Z)-1,8-diamino-p-menthane], at 5-HT1A, the “potency at the 5-HT1A binding site (in words)” value was “similar, though less potent, affinity” and the concentration for half-maximal inhibition (IC50) stood at 6.3 ± 2 nM. For the same compound, in the series on non-5-HT1A, the “potency at non-5-HT1A binding sites (in words)” value is on record as “least potent” and the concentration for half-maximal inhibition (IC50) worked out at 140 ± 70 nM. In addition, at 5-HT2, the “potency at 5-HT2 binding sites (in words)” value was “least potent” and the concentration for half-maximal inhibition (IC50) was 3100 ± 1000 nM. Further, the degraded at 1460 h in series [1] is less than 5%. The IC50 on β-adrenergic receptors was 1.3 ± 0.2 nM.
In the case of `CC(C)(NCC(O)COc1cccc2[nH]ccc12)[C@H]1CC[C@@](C)(NC(=O)CBr)CC1` (some centres unmarked) [Compound 9, N^1 (Bromoacetyl)-N^8-[3-(4-indolyloxy)-2-hydroxypropyl]-(Z)-1,8-diamino-p-menthane], on 5-HT1A, the “potency at the 5-HT1A binding site (in words)” value is reported as “extremely potent” and the IC50 stood at 0.71 ± 0.02 nM. In addition, in the series with non-5-HT1A, the “potency at non-5-HT1A binding sites (in words)” value was “approximately less potent” and the IC50 was determined as 430 ± 200 nM. At 5-HT2, the “potency at 5-HT2 binding sites (in words)” value is recorded as “approximately less potent” and the IC50 is 4000 ± 500 nM. Moreover, the degraded at 1460 h in series [1] was less than 5%. In the series on β-adrenergic receptors, the “potency at β-adrenergic receptors relative to 5-HT1A (in words)” value is listed as “approximately an order of magnitude less potent” and the IC50 amounted to 5.6 ± 0.5 nM.
`CC(C)(NC(=O)CBr)[C@H]1CC[C@@](C)(NCC(O)COc2cccc3[nH]c(C#N)cc23)CC1` (some centres unmarked) [Compound 10, N^8-(Bromoacetyl)-N1-[3-[(2-cyano-4-indolyl)oxy]-2-hydroxYpropyl]-(Z)-1,8-diamino-p-menthane]: in series [1], the degraded at 1460 h is less than 5%.
`CC(C)(NCC(O)COc1cccc2[nH]c(C#N)cc12)[C@H]1CC[C@@](C)(NC(=O)CBr)CC1` (some centres unmarked) [Compound 11]: the “potency at the 5-HT1A binding site (in words)” value at 5-HT1A is on record as “similar, though less potent, affinity”. Also, the IC50 at 5-HT1A stood at 5.3 ± 2 nM; at non-5-HT1A, 410 ± 200 nM; on 5-HT2, 4400 ± 2000 nM; on β-adrenergic receptors it was 1.1 ± 0.02 nM. Also, the “potency at non-5-HT1A binding sites (in words)” value in the series on non-5-HT1A is listed as “least potent”. The “potency at 5-HT2 binding sites (in words)” value on 5-HT2 is “least potent”. Also, the degraded at 1460 h in series [1] was less than 5%.
Regarding `COC(=O)/C=C/C(=O)NC(C)(C)[C@H]1CC[C@@](C)(NCC(O)COc2cccc3[nH]ccc23)CC1` (some centres unmarked) [Compound 12], on 5-HT1A, the “potency at the 5-HT1A binding site (in words)” value is “similar, though less potent, affinity” and the IC50 came to 31 ± 8 nM. Further, in the series with non-5-HT1A, the “potency at non-5-HT1A binding sites (in words)” value is “least potent” and the IC50 stood at 270 ± 50 nM. In addition, on 5-HT2, the “potency at 5-HT2 binding sites (in words)” value was “least potent” and the IC50 worked out at 1100 ± 500 nM. For the same compound, in the series with β-adrenergic receptors, the “selectivity for β-adrenergic receptors (in words)” value is recorded as “most selective for β-adrenergic receptors” and the IC50 is 2.8 ± 0.5 nM.
For `COC(=O)/C=C/C(=O)N[C@]1(C)CC[C@H](C(C)(C)NCC(O)COc2cccc3[nH]ccc23)CC1` (some centres unmarked) [Compound 13], at 5-HT1A, the “potency at the 5-HT1A binding site (in words)” value was “extremely potent” and the IC50 was determined as 1.2 ± 0.2 nM. In the series with non-5-HT1A, the “potency at non-5-HT1A binding sites (in words)” value is given as “approximately less potent” and the IC50 came to 2900 ± 800 nM. At 5-HT2, the “potency at 5-HT2 binding sites (in words)” value is on record as “approximately less potent” and the IC50 came out at 3600 ± 1000 nM. In addition, in the series on β-adrenergic receptors, the “potency at β-adrenergic receptors relative to 5-HT1A (in words)” value is “approximately an order of magnitude less potent” and the IC50 stood at 10 ± 5 nM.
Take `CC(C)(NC(=O)C1=CC2C=CC1CC2)[C@H]1CC[C@@](C)(NCC(O)COc2cccc3[nH]ccc23)CC1` (some centres unmarked) [Compound 14]: at 5-HT1A, the “potency at the 5-HT1A binding site (in words)” value was “similar, though less potent, affinity” and the IC50 is 26 ± 8 nM. In the series with non-5-HT1A, the “potency at non-5-HT1A binding sites (in words)” value is on record as “least potent” and the half-maximal inhibitory concentration (IC50) is 46 ± 10 nM. For the same compound, at 5-HT2, the “potency at 5-HT2 binding sites (in words)” value is reported as “least potent”. Besides, in the series with β-adrenergic receptors, the “selectivity for β-adrenergic receptors (in words)” value is given as “most selective for β-adrenergic receptors” and the half-inhibitory concentration (IC50) is 4.2 ± 2 nM.
As for `CC(C)(NCC(O)COc1cccc2[nH]ccc12)[C@H]1CC[C@@](C)(NC(=O)C2=CC3C=CC2CC3)CC1` (some centres unmarked) [Compound 15], at 5-HT1A, the “potency at the 5-HT1A binding site (in words)” value is listed as “extremely potent” and the IC50 was found to be 1.1 ± 0.1 nM. Besides, in the series on non-5-HT1A, the “potency at non-5-HT1A binding sites (in words)” value is on record as “approximately less potent” and the half-inhibitory concentration (IC50) worked out at 1300 ± 500 nM. Also, the “potency at 5-HT2 binding sites (in words)” value at 5-HT2 was “approximately less potent”. Moreover, in the series with β-adrenergic receptors, the “potency at β-adrenergic receptors relative to 5-HT1A (in words)” value is recorded as “approximately an order of magnitude less potent” and the concentration for half-maximal inhibition (IC50) came to 19 ± 9 nM.
For the compound `O=C1c2ccccc2S(=O)(=O)N1CCCCN1CCN(c2ncccn2)CC1` [TVX Q 7821], the “inhibition of [^3 H]-8-OH-DPAT binding” value with 5-HT1A receptors was “potent inhibitors”.
Regarding `NCCc1c[nH]c2ccc(O)cc12` [^3 H-5-HT, 5-Hydroxytryptamine], the Kd on non-5-HT1A (used for Ki calculation) is 3.2 nM.
Turning to `CN1CCC(=C2c3ccccc3C=Cc3ccccc32)CC1` [cyproheptadine], the “inhibition of [^3 H]-8-OH-DPAT binding” value in the series with 5-HT1A receptors is given as “potent inhibitors”.
As to `CN1CCC(=C2c3ccccc3CCc3sccc32)CC1` [pizotifen], the “inhibition of [^3 H]-8-OH-DPAT binding” value in the series on 5-HT1A receptors is reported as “potent inhibitors”.

Source of the values: patent publication US5229412A, “Method for relieving anxiety using 5-hydroxytryptamine-1A-receptor-binding compounds” (The Board of Trustees of the Leland Stanford Junior …, priority 1988, dated 1993).
